Test [1] in a line: Late stage assay provider results from the probe development effort to identify inhibitors of the Plasmodium falciparum M17 Leucine Aminopeptidase (M17LAP): radiolabel-based cell-based dose response assay to identify compounds that inhibit P. falciparum growth in RBCs Set 2. The format is functional.
A short description of test [2]: CMV-driven luciferase expression suppression in HEK293 – cell-based, luminescence, dry powder, counter-screen for Pax8 inhibitor project, dose response (AID 743020). The format is functional. In general terms: Counterscreens check selectivity or assay interference.
In the next test the target is Paired box protein Pax-8 (Homo sapiens, UniProt Q06710). Put plainly: PAX8 transcriptional activity inhibition in RMG-I – RMG-I cells, luciferase, cherry-pick, dose response (AID 687027).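 Note: luciferase reporter driven by Pax8 target thyroperoxidase promoter measured by SteadyGlo luminescence.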 The format is functional, cell-based.
The next test deals with HeLa. Put plainly: viability loss in HeLa cells – cell-based, ATP luminescence, cherry-pick samples, cytotoxicity control, dose response (AID 687004). The conditions noted are these: Homo sapiens. It is filed as functional.
Test [3] is described as follows: A Cell-Based Confirmatory Screen for Compounds that Inhibit VEEV, TC-83 (8). It is filed as functional.
Test [4] is described as follows: A Cell-Based Confirmatory Screen for Compounds that Inhibit VEEV, TC-83 (6). It is filed as functional.
The target of test [5] is Metabotropic glutamate receptor 3 (Rattus norvegicus, UniProt P31422). The test is described as follows: inhibition of rat mGlu3 glutamate signaling – HEK/GIRK cells, thallium flux, dose response (AID 651839). The format is functional.
Test [6] has as its target T1, High affinity choline transporter 1 (Homo sapiens, UniProt Q9GZV3).
T1 sequence (Q9GZV3 whole entry): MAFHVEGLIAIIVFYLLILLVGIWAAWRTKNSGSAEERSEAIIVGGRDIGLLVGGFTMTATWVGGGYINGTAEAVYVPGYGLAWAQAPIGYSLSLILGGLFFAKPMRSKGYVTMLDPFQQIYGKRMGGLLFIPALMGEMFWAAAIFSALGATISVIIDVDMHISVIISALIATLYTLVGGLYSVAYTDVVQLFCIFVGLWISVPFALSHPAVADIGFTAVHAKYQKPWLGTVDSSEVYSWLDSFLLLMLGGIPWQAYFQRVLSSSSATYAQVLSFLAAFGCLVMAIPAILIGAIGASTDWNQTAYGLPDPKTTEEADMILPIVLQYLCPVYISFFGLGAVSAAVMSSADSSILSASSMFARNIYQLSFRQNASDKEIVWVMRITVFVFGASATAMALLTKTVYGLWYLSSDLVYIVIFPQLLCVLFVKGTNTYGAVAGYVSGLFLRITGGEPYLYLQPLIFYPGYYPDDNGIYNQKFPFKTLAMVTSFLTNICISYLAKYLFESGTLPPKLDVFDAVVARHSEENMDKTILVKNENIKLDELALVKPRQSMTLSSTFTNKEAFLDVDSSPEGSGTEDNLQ
The test is described as follows: inhibition of SLC5A7-mediated choline transport – cell-based, HEK-293 hCHT, [3H]-choline uptake, dose response (AID 652177). It is filed as functional.

Test [7] in a line: Trypanosoma cruzi growth suppression in host cells – NIH3T3 host cells, beta-gal luminescence, confirmation (AID 2044).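 Note: intracellular parasites grown in NIH/3T3 mouse fibroblasts as host cells; luminescent beta-galactosidase reporter signal from transgenic T. cruzi replicating inside host cells; inhibitors lower the luminescence signal.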 The format is functional, cell-based.
The nature of test [8]: Counterscreen for activators of the function of SWI/SNF related, matrix associated, actin dependent regulator of chromatin, subfamily a, member 2 (SMARCA2, BRM): Luminescence-based cell-based high throughput dose response assay to identify non-selective compounds using the VP16 reporter assay. The format is functional.
Test [9] in a line: NIH3T3 cell viability loss – ATP luminescence, mouse fibroblasts, counter-screen, dose response (AID 2010).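 Note: cells exposed to compound for about 90 hours before reading.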 The format is functional, cell-based.
Test [10] in a line: HEK-293T viability loss after treatment – luminescence, T-cell screen hits, cytotoxicity control for TCR NF-kB inhibitor project, dose response (AID 489026).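 Note: cells exposed to compound about 14 hours before the viability readout.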 It is filed as functional, cell-based.
Test [11] has as its target T2, Microphthalmia-associated transcription factor (Homo sapiens, UniProt O75030).
T2 sequence (O75030 whole entry): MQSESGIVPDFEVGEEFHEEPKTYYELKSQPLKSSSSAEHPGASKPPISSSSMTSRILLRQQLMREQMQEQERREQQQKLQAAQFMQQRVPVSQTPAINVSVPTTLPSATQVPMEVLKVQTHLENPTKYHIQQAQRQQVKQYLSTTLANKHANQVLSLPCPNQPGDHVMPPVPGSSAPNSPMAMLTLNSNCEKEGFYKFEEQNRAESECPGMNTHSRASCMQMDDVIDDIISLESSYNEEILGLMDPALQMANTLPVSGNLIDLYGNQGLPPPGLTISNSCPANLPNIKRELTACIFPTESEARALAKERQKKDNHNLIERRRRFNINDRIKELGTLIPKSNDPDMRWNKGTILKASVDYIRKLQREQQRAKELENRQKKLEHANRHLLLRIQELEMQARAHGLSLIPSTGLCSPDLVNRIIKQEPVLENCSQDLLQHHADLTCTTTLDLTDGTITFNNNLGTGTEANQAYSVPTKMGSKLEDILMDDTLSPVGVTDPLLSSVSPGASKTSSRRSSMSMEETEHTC
Put plainly: reducers of TRPM1 reporter luminescence, concentration series – cell-based, SK-MEL-5, cherry-picked, set 3, MITF inhibitor project, dose response (AID 493073).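 Note: SK-MEL-5 melanoma cells with luciferase driven by the MITF target TRPM1 promoter.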 It is filed as functional.

The target of test [12] is SWI/SNF-related matrix-associated actin-dependent regulator of chromatin subfamily A member 2 (Homo sapiens, UniProt P51531). The test is described as follows: Luminescence-based cell-based high throughput dose response assay to identify activators of the function of SWI/SNF related, matrix associated, actin dependent regulator of chromatin, subfamily a, member 2 (SMARCA2, BRM). It is filed as functional.

The structures appear in SMILES notation. Calls of active or inactive are those of the source.

Paired box protein Pax-8, sequence (Q06710 whole entry): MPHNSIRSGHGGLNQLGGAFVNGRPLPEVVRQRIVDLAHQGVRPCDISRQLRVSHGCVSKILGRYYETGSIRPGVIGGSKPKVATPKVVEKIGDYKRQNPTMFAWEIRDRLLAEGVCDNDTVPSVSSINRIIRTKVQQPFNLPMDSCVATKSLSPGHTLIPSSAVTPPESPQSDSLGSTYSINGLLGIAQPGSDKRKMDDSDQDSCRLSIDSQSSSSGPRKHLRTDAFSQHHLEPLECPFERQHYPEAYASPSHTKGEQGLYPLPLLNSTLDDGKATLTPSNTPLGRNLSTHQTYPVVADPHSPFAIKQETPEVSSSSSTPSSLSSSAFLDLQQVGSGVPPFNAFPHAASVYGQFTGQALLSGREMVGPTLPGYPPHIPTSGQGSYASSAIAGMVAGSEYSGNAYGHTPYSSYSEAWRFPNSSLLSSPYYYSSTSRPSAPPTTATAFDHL
SWI/SNF-related matrix-associated actin-dependent regulator of chromatin subfamily A member 2, sequence (P51531 whole entry): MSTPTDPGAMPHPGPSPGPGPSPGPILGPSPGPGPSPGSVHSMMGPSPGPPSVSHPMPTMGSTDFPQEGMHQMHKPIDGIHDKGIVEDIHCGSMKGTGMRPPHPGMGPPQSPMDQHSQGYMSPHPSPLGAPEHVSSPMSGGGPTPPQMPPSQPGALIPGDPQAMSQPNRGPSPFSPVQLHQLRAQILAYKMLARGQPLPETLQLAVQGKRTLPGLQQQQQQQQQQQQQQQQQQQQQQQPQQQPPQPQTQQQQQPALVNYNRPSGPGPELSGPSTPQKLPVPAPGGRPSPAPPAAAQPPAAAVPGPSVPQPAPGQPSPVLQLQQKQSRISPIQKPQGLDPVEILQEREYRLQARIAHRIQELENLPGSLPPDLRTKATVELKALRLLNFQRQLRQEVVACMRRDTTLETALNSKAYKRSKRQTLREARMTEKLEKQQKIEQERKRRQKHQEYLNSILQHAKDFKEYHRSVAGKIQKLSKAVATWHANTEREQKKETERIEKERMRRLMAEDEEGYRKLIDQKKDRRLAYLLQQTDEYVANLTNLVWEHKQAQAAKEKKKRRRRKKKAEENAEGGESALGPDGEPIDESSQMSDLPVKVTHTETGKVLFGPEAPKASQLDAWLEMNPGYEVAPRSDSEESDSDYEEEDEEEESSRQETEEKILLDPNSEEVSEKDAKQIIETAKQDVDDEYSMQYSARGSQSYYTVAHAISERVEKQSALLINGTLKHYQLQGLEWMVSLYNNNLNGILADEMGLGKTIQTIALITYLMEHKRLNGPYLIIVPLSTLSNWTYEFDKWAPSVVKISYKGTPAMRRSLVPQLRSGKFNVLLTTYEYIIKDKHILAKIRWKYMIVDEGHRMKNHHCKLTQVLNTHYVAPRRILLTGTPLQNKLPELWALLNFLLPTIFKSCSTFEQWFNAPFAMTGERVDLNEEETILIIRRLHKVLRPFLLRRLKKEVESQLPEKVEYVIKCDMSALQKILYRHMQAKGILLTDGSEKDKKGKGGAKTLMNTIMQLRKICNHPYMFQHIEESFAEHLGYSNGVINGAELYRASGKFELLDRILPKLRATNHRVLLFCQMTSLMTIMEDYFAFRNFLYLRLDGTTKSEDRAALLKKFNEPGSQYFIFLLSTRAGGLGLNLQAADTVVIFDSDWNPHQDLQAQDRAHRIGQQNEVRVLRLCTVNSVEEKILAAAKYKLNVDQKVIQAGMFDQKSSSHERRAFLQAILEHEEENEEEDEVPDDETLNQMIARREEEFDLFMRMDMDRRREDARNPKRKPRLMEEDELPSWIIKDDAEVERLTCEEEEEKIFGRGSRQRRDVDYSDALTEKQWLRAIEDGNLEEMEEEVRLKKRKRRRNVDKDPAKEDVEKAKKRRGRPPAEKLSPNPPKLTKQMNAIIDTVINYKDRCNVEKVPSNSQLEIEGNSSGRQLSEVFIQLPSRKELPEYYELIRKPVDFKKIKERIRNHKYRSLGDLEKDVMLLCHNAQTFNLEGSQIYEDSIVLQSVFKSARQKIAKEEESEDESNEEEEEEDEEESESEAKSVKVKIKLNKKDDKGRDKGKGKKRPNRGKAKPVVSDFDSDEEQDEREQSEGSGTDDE
Metabotropic glutamate receptor 3, sequence (P31422 whole entry): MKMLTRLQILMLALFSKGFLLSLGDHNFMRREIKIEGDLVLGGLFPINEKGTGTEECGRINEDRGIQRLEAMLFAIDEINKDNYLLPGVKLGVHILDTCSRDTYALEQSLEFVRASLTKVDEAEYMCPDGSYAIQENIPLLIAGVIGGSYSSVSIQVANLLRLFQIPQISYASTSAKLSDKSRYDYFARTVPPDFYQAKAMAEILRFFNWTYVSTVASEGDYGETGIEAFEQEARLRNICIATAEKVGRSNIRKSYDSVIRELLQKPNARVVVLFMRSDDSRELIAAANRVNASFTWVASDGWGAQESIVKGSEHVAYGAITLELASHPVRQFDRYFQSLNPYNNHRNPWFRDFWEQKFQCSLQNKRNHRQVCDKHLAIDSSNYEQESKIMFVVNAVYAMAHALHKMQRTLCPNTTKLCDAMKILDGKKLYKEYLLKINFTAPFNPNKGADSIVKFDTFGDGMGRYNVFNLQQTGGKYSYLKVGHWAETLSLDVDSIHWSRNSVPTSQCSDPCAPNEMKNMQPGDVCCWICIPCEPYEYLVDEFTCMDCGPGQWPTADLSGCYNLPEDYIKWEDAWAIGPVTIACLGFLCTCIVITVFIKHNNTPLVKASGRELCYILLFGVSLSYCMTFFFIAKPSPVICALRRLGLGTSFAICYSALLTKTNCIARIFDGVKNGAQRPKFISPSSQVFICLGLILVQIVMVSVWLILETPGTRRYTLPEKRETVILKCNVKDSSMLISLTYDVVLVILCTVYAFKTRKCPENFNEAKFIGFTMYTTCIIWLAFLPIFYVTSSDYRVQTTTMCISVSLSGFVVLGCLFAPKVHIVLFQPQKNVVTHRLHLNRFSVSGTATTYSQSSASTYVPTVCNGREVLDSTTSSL

The IC50 is the concentration that gives 50% inhibition. For the molecule `CCCCOc1ccc(C(=O)NO)cc1`, the IC50 in [1] was 11.3 µM (inactive). A word on the AC50: it is the concentration giving half of the maximal activity seen. In the case of `C[C@H](CO)N1C[C@H](C)[C@@H](CN(C)C(=O)Nc2cccc3ccccc23)OCCCC[C@H](C)Oc2ccc(NC(=O)c3ccncc3)cc2C1=O`, the AC50 was 49.1 µM (active) in test [2] and 3.61 µM (active) on Paired box protein Pax-8.

`CNC(=O)C[C@H]1CC[C@H]2[C@@H](COc3ccc(NC(=O)Nc4cccc(C#N)c4)cc3C(=O)N2C)O1`: in the test with HeLa, the AC50 was 27.2 µM (active). In the case of `COc1ccc(-n2c(CN3CCNCC3)nc3ccc([N+](=O)[O-])cc3c2=O)cc1`, the IC50 was < 0.218 µM (active) in test [3] and < 0.22 µM (active) in [4]. On to `COc1ccc(COc2ccc(C(=O)N3CCC[C@@H](CO)C3)cc2)cc1`, for which, in test [5], the IC50 is 6.84 µM (active). As to `COc1ccc(C(=O)NCc2cc(C(C)C)no2)cc1OC1CCCN(C)C1` (stereo not given), in test [6], the IC50 is 1.25 µM (active). For orientation: EC50 means the midpoint of the concentration-response curve. Turning to `Nc1nc(O)c2[nH]nnc2n1` [8-AZAGUANINE], the EC50 in “cells” was 0.153 µM (active); in [7] it was < 0.1 µM (active); in test [8], > 91.2 µM (inactive); in test [9], 10.3 µM (active). The IC50 in [10] was > 80 µM (inactive). On to `Nc1nc2nn[nH]c2c(=O)[nH]1` [8-AZAGUANINE], for which the AC50 in test [11] was 0.875 µM (active). Moreover, the EC50 in test [12] is > 91.2 µM (inactive).

Source of the values: ChEMBL document CHEMBL1201862, “PubChem BioAssay data set” (2004).
